In patent publication US8957074B2 (Novartis AG, priority 2010, dated 2015) one finds IC50 data, which are given here for 13 molecules.

Test [1] relates to phosphorylation of pRb at the Ser780 site in JeKo-1 mantle cell lymphoma cells. Briefly: CDK4 cellular assay: ELISA of pRb phosphorylation at Ser780 in JeKo-1 cells. It counts as cell-based. The following applies: Homo sapiens. From the text:
Cell-based assay measuring phosphorylation levels of pRb at the Ser780 site using an enzyme-linked immunosorbent assay (ELISA) method (Table 6). JeKo-1, a mantle-cell lymphoma cell line, was selected for use in this assay due to its known translocation and subsequent overexpression of cyclin D1. [Ref: Amin, H. M.; McDonnell, T. J.; Medeiros, L. J.; Rassidakis, G. Z.; Leventaki, V.; O'Connor, S. L.; Keating, M. J.; Lai, R. Characterization of 4 mantle cell lymphoma cell lines—Establishment of an in vitro study model. Arch. Pathol. Lab.
Cells were allowed to adhere overnight. […] 10 μL of the dilution were then transferred to the cell culture plate, resulting in a final concentration range of 10 μM to 2 nM. The incubation was carried out at 37° C. with 5% CO2. All compounds were tested in triplicates at each concentration. […] The plates were placed at 4° C. with vigorous shaking for 5 min to lyse the cells. The resulting lysates contained approximately 1 μg/μL of protein.
Plates were incubated overnight at 4° C. with rocking. […] After shaking for 10 minutes, the Superblock solution was replaced with fresh Superblock and plates were incubated on a shaker for an additional 50 min. After blocking, 30 μL of JeKo-1 cell lysate, containing approximately 10 μg total protein, were added to wells in triplicate. […] For all incubation steps, plates were covered with Uniseal plate sealers. […] Next, 50 μL of a 1:2500 dilution of donkey-anti-rabbit HRP (Promega catalog no. W401B) in PBS/10% Superblock were added, and plates were incubated for 30 min at room temperature on a shaker. Plates were again washed as described above. […] After incubation, 50 μL 2 M sulfuric acid were added to plates to top the reaction, and absorbance was determined on a SpectraMax (Molecular Devices, Sunnydale, Calif.) within 15 minutes at 450 nm. All washes were performed using a Bio-Tek plate washer.
The Total Rb ELISA kit (Invitrogen catalog no. KH00011) was used to determine the levels of total pRb. This kit uses wells precoated with a proprietary total pRb antibody for capture. All reagents listed, with the exception of cell lysate, were included in the kit. The nature of the antibodies used for capture and detection was labeled as proprietary and not disclosed. 10 μg of cell lysate was loaded into the wells and volume adjusted to 50 μL with standard dilution buffer. Plates were sealed with film included in the kit and incubated for 2 h at room temperature on a shaker. Plates are then manually washed three times with 250 μL wash buffer. 50 μL of proprietary primary antibody (pre-conjugated to biotin) was added to wells and incubated for 1 h at room temperature on a shaker. Then plates were again washed as noted above. The secondary antibody (HRP pre-conjugated to Streptavidin) was diluted 1:100 in Streptavidin-HRP diluent buffer and 50 μL was added to each well. Plates were then incubated for 30 min. Afterwards, plates were washed four times with buffer as outlined above. Finally, 50 μL stabilized Chromogen was added per well and plates were incubated for 15 min, at which point 50 μL of stop solution was added. Plates were then read on a Spectramax at 450 nm.
The total pRb levels were then used to adjust the p-pRb % inhibition values to account for any loss of signal due to the absence of the pRb protein itself, and the IC50 values obtained from the adjusted % inhibitions represent normalized cellular p-pRb IC50.
(In general: In an ELISA, binding on a coated surface is turned into a signal by an enzyme label.)

Test [2] concerns the target CDK4/cyclin D1 (Homo sapiens (Human), UniProt P11802). Briefly: CDK4/cyclin D1 enzymatic activity assay (TR-FRET, phosphorylation of pRb at Ser780). It counts as biochemical. The conditions noted are these: 0.3 nM CDK4/cyclin D1, 150 nM biotin-pRb (773-924), 3 μM ATP, 60 min at 22° C.; read-out: Biochemical CDK4 enzyme IC50. The protocol: CDK4/Cyclin D1 Enzymatic Activity Assay
An assay for monitoring CDK4/cyclin D1-catalyzed phosphorylation of pRb at the Ser780 site was performed using TR-FRET in a 384-well format, and was used for IC50 determination and kinetic analysis. […] 3 μM ATP was added last to initiate the reaction. The reaction was quenched with 10 μL of 240 mM EDTA-Na (pH 8.0) after 60 min incubation at 22° C.
Human CDK4/cyclin D1 was expressed in Sf21 cells via baculovirus infection.

Test [3] concerns the target CDK1/cyclin B (Homo sapiens (Human), UniProt P06493). As to the kind of experiment: CDK1/cyclin B enzymatic activity assay (IMAP-FP). In kind it is biochemical. The conditions noted are these: 100 nM Tamra Histone-H1 peptide, 20 μM ATP, 120 min at room temperature, read-out: Biochemical CDK1 enzyme IC50. The source says: CDK1/Cyclin B Enzymatic Activity Assay
A 384-well microtiter IMAP-FP™ (Molecular Devices Trade Mark Technology) endpoint assay was used for CDK1/cyclin B kinase activity measurements. The same assay was used for IC50 determination of small molecule inhibitors.

[4] abbreviates: JeKo-1, JeKo-1 cells, p-pRb % inhibition adjusted with total pRb levels, read-out: Normalized cellular ppRb inhibition IC50.
Setting [5] is: JeKo-1, JeKo-1 cells, p-pRb Ser780 ELISA, non-normalized, read-out: Cellular ppRb inhibition IC50.
[6] abbreviates: JeKo-1 cells, p-pRb % inhibition adjusted with total pRb levels, read-out: Normalized cellular ppRb inhibition IC50.
Where [7] appears, read: JeKo-1 cells, p-pRb Ser780 ELISA, non-normalized, read-out: Cellular ppRb inhibition IC50.

Molecules are shown by their SMILES. Read-outs that look alike come from different tables or passages of the source. Where only a bound is given, the exact number is not on record here.

Chain of CDK1/cyclin B (P06493 whole entry, species assumed): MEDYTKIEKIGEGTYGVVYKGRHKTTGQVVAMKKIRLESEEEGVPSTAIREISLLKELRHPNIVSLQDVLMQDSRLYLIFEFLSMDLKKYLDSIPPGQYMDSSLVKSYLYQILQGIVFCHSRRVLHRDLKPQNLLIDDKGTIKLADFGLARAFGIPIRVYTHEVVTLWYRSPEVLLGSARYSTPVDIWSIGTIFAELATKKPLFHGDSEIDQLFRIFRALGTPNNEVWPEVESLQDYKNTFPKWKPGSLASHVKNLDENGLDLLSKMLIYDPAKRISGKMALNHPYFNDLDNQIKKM
Chain of CDK1/cyclin B (P14635 whole entry partner, species assumed): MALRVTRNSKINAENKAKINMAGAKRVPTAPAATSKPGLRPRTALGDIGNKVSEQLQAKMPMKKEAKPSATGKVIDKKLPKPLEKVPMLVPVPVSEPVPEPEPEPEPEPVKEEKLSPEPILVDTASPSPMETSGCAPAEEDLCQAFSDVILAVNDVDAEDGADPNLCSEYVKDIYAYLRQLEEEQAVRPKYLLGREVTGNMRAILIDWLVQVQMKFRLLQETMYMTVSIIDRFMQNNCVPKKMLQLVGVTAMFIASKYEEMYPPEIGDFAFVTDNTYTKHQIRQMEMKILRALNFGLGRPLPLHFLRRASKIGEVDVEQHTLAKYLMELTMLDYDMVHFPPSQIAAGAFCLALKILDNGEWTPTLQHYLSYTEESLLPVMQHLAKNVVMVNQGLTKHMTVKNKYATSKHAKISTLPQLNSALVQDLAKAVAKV
Chain of CDK4/cyclin D1 (P11802 whole entry): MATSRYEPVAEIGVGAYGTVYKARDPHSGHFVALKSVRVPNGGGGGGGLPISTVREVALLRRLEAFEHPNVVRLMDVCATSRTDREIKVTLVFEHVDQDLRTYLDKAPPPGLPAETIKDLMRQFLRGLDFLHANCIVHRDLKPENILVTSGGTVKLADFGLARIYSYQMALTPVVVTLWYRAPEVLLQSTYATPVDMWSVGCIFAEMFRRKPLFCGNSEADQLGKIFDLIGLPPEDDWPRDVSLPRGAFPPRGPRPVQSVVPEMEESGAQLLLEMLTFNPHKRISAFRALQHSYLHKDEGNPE
Chain of CDK4/cyclin D1 (P24385 whole entry partner): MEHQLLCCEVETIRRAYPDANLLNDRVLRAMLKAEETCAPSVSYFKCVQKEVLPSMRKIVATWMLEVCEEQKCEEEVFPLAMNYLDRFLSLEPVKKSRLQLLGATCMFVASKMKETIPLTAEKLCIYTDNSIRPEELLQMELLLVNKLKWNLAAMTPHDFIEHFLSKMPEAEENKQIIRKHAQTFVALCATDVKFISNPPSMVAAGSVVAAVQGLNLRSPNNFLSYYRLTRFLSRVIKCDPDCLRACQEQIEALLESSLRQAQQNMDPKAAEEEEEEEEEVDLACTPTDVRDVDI

In general, IC50 refers to the concentration that inhibits the measured activity by half. Turning to `CN(C)C(=O)c1cc2cnc(Nc3ccc(N4CC5CC5(N)C4)cn3)nc2n1C1CCCC1` (stereo not drawn) [Example 78, 2-[5-(1-Amino-3-aza-bicyclo[3.1.0]hex-3-yl)-pyridin-2-ylamino]-7-cyclopentyl-7H-pyrrolo[2,3-d]pyrimidine-6-carboxylic acid dimethylamide], the IC50 in test [1] (JeKo-1, read-out: Cellular ppRb inhibition IC50) was 59 nM; in test [2], 76 nM; in test [3] (0.25 nM CDK1/cyclin B) it was more than 15000 nM.
Regarding `CN(C)C(=O)c1cc2cnc(Nc3ccc(N4CC5(CC6CCC(C5)N6C)OC4=O)cn3)nc2n1C1CCCC1` [Example 102, 7-cyclopentyl-N,N-dimethyl-2-(5-((1R,3r,5S)-8-methyl-2′-oxo-8-azaspiro[bicyclo[3.2.1]octane-3,5′-oxazolidine]-3′-yl)pyridin-2-ylamino)-7H-pyrrolo[2,3-d]pyrimidine-6-carboxamide], the concentration for half-maximal inhibition (IC50) in test [1] (setting [4]) is 71 nM; in test [1] (setting [5]) it was 39 nM; in test [2], 18 nM; in test [3] ([…] CDK1/cyclin B), more than 15000 nM.
On to `CN(C)C(=O)c1cc2cnc(Nc3ccc(N4C[C@@]5(CCCNC5)OC4=O)cn3)nc2n1C1CCCC1` [Example 109, 7-Cyclopentyl-2-[5-((S)-2-oxo-1-oxa-3,7-diaza-spiro[4.5]dec-3-yl)-pyridin-2-ylamino]-7H-pyrrolo[2,3-d]pyrimidine-6-carboxylic acid dimethylamide], for which the IC50 in test [1] (setting [6]) is 75 nM; in test [1] (setting [7]), 48 nM; in test [2] it was 12 nM; in test [3] ([…] CDK1/cyclin B) it was more than 15000 nM.
`CSCC[C@@H](N)C(=O)N1C2CCC1CN(C(=O)c1ccc(Nc3ncc4cc(C(=O)N(C)C)n(C5CCCC5)c4n3)nc1)C2` [Example 59, 2-{5-[8-((R)-2-Amino-4-methylsulfanyl-butyryl)-3,8-diaza-bicyclo[3.2.1]octane-3-carbonyl]-pyridin-2-ylamino}-7-cyclopentyl-7H-pyrrolo[2,3-d]pyrimidine-6-carboxylic acid dimethylamide]: the 50% inhibitory concentration (IC50) in test [1] (setting [6]) is more than 10000 nM; in test [1] (setting [7]), 2500 nM; in test [2], 8 nM; in test [3] ([…] CDK1/cyclin B), more than 15000 nM.
Regarding `CNC(=O)c1cc2cnc(Nc3ccc(N4C[C@H]5CC[C@@H](CC4=O)N5C)cn3)nc2n1C1CCCC1` [Example 125, 7-cyclopentyl-2-[5-((1R,6S)-9-methyl-4-oxo-3,9-diaza-bicyclo[4.2.1]non-3-yl)-pyridin-2-ylamino]-7H-pyrrolo[2,3-c]pyrimidine-6-carboxylic acid methylamide], the IC50 in test [1] (setting [6]) was 161 nM; in test [1] (setting [7]) it was 83 nM; in test [2] it was 15 nM; in test [3] ([…] CDK1/cyclin B), more than 15000 nM.
On to `CN(C)C(=O)c1cc2cnc(Nc3ccc(N4C[C@H]5CC[C@@H](CC4=O)N5C)cn3)nc2n1C1CCCC1` [Example 140, 7-cyclopentyl-N,N-dimethyl-2-(5-((1R,6S)-9-methyl-4-oxo-3,9-diazabicyclo[4.2.1]nonan-3-yl)pyridin-2-ylamino)-7H-pyrrolo[2,3-d]pyrimidine-6-carboxamide], for which the IC50 in test [1] (setting [4]) is 11 to 18 nM; in test [1] (setting [5]), 5 to 9 nM; in test [2], 5 to 6 nM; in test [3] ([…] CDK1/cyclin B), more than 15000 nM.
`CN(C)C(=O)c1cc2cnc(Nc3ccc(C(=O)N4CC5CCC(C4)N5)cn3)nc2n1C1CCCCCC1` [Example 4, 2-(5-(3,8-diazabicyclo[3.2.1]octane-3-carbonyl)pyridin-2-ylamino)-7-cycloheptyl-N,N-dimethyl-7H-pyrrolo[2,3-d]pyrimidine-6-carboxamide]: the IC50 in test [1] (setting [4]) amounted to 10 nM; in test [1] (setting [5]), 9 nM; in test [2], 4 nM; in test [3] ([…] CDK1/cyclin B), 7060 nM.
Regarding `CC(=O)N1C2CCC1CN(C(=O)c1ccc(Nc3ncc4cc(C(=O)N(C)C)n(C5CCCCCC5)c4n3)nc1)C2` [Example 8, 2-(5-(8-acetyl-3,8-diazabicyclo[3.2.1]octane-3-carbonyl)pyridin-2-ylamino)-7-cycloheptyl-N,N-dimethyl-7H-pyrrolo[2,3-d]pyrimidine-6-carboxamide], the IC50 is 259 nM in test [1] (setting [6]), 72 nM in test [1] (setting [7]), 39 nM in test [2] and more than 15000 nM in test [3] ([…] CDK1/cyclin B).
In the case of `CN(C)C(=O)c1cc2cnc(Nc3ccc(N4CCN5CCCCC5C4=O)cn3)nc2n1C1CCCC1` (stereo not drawn) [Example 99, 7-Cyclopentyl-2-[5-(1-oxo-octahydro-pyrido[1,2-a]pyrazin-2-yl)-pyridin-2-ylamino]-7H-pyrrolo[2,3-d]pyrimidine-6-carboxylic acid dimethylamide], the IC50 was 618 nM in test [1] (setting [4]), 463 nM in test [1] (setting [5]), 71 nM in test [2] and more than 15000 nM in test [3] ([…] CDK1/cyclin B).
For the molecule `CC(C)N1[C@@H]2CC[C@H]1CN(c1ccc(Nc3ncc4cc(C(=O)N(C)C)n(C5CCCC5)c4n3)nc1)C(=O)C2` [Example 142, 7-Cyclopentyl-2-[5-((1S,6R)-9-isopropyl-4-oxo-3,9-diaza-bicyclo[4.2.1]non-3-yl)-pyridin-2-ylamino]-7H-pyrrolo[2,3-d]pyrimidine-6-carboxylic acid dimethylamide], the 50% inhibitory concentration (IC50) in test [1] (setting [6]) is 13 nM; in test [1] (setting [7]), 6 nM; in test [2] it was 34 nM; in test [3] ([…] CDK1/cyclin B), more than 15000 nM.
Regarding `CN(C)C(=O)c1cc2cnc(Nc3ccc(C(=O)N4CC5CCC(C4)N5)cn3)nc2n1C(C)(C)C` [Example 58, 7-tert-Butyl-2-[5-(3,8-diaza-bicyclo[3.2.1]octane-3-carbonyl)-pyridin-2-ylamino]-7H-pyrrolo[2,3-d]pyrimidine-6-carboxylic acid dimethylamide], the IC50 is 288 to 338 nM in test [1] (setting [6]), 105 to 188 nM in test [1] (setting [7]), 74 nM in test [2] and more than 15000 nM in test [3] ([…] CDK1/cyclin B).
Consider `CN(C)C(=O)c1cc2cnc(Nc3ccc(C(=O)N4CC5CC(C4)N(C)C5)cn3)nc2n1C1CCCC1` (stereo not drawn) [Example 13, 7-Cyclopentyl-2-[5-(6-methyl-3,6-diaza-bicyclo[3.2.1]octane-3-carbonyl)-pyridin-2-ylamino]-7H-pyrrolo[2,3-d]pyrimidine-6-carboxylic acid dimethylamide], for which the IC50 in test [1] (setting [6]) was determined as 145 nM; in test [1] (setting [7]) it was 65 nM; in test [2] it was 6 nM; in test [3] ([…] CDK1/cyclin B), 8440 nM.
For `CN(C)C(=O)c1cc2cnc(Nc3ccc(C(=O)N4CCN5CCCC5C4)cn3)nc2n1C1CCCC1` (stereo not drawn) [Example 20, 7-Cyclopentyl-2-[5-(hexahydro-pyrrolo[1,2-a]pyrazine-2-carbonyl)-pyridin-2-ylamino]-7H-pyrrolo[2,3-d]pyrimidine-6-carboxylic acid dimethylamide], the half-inhibitory concentration (IC50) in test [1] (setting [4]) was 452 nM; in test [1] (setting [5]), 267 nM; in test [2] it was 64 nM; in test [3] ([…] CDK1/cyclin B), more than 15000 nM.
